Laboratory results from US4812465A, “Triazole derivatives for use as antimycotic agents” (CL Pharma Aktiengesellschaft, priority 1986, dated 1989).
Values after ≈ are worked out from the molar mass of the structure shown. Values joined by “and” are separate entries in the source; they are usually repeats but may differ in a detail not shown here. Equal entries are not always repeated. Where two headings read alike, the source gives them in different places.

Columns and labels:
Assay in all cases: In vitro determination of minimum inhibitory concentration (MIC), serial dilution
Assay type in all cases: cell-based
[1] = test system: Absidia ramosa; conditions: pH 6.0, 22° C., 14 days; for MIC: Lichtheimia ramosa, 336 h, pH 6, Absidia ramosa
Protocol: (§1) The antimycotic activities of the compounds were measured by in vitro determination of the minimum inhibitory concentration (MIC) for yeasts, molds and dermatophytes.
(§2) 6 dermatophytes, 2 yeasts and 4 molds were used for testing with fungi, as follows:
(§3) The minimum inhibitory concentration (MIC) was determined in serial dilution tests in test tubes. The volume of the liquid nutrient medium in each test tube was 4.5 ml.
(§4) The substances were dissolved in DMSO and diluted with sterile distilled water to 10 concentrations (100, 50, 25, 12.5, 6.25, 3.12, 1.56, 0.78, 0.39 and 0.19 μg/ml). 0.5 ml of each of these dilution steps was added to liquid nutrient medium. Thus, a constant concentration of solvent in all the nutrient media was ensured, irrespective of the active compound concentration.
(§5) A comparison solution which contained only the solvent in appropriate concentration was included when carrying out each of the tests.
(§6) The individual strains were maintained on Sabouraud/beerwort agar slants and, before they were used in a test, they underwent a passage on a modified Sabouraud liquid nutrient medium. The strains were then harvested, washed and converted into a suspension of McFaerland 3 in the case of yeasts and molds and of McFaerland 4-5 in the case of dermatophytes.
(§7) The amount of material inoculated (inoculum) was 100 μl/test tube (inoculated densities: yeasts about 10^3 /ml, molds about 10^4 /ml, dermatophytes about 10^4 /ml). The pH of the liquid nutrient medium was 6.0. After inoculation had taken place the fungi were incubated at 22° C. for 14 days.
(§8) The MIC was then determined. The concentration step at which growth was no longer visible on macroscopic inspection was used for the determination of the MIC. The comparison substance used was 1-(2-(2,4-dichlorophenyl)-2-(2,4-dichlorophenylmethoxy)ethyl)-1H-imidazole(compound A).

[2] = test system: Aspergillus fumigatus
Protocol: as §1, §2, §3, §4, §5, §6, §7, §8

[3] = test system: Candida albicans; conditions: for MIC: 336 h
Protocol: as §1, §2, §3, §4, §5, §6, §7, §8

[4] = test system: Candida tropicalis; conditions: 336 h
Protocol: as §1, §2, §3, §4, §5, §6, §7, §8

[5] = test system: Epidermophyton floccosum; conditions: pH 6.0, 22° C., 14 days; for MIC: 336 h, pH 6, Epidermophyton floccosum
Protocol: as §1, §2, §3, §4, §5, §6, §7, §8

[6] = test system: Microsporum canis; conditions: 336 h, pH 6, Microsporum canis, pH 6.0, 22° C., 14 days
Protocol: as §1, §2, §3, §4, §5, §6, §7, §8

[7] = test system: Microsporum gypseum; conditions: for MIC: Nannizzia gypsea, 336 h
Protocol: as §1, §2, §3, §4, §5, §6, §7, §8

[8] = test system: Mucor mucedo minus; conditions: pH 6.0, 22° C., 14 days; for MIC: Mucor mucedo, 336 h, pH 6, Mucor mucedo minus
Protocol: as §1, §2, §3, §4, §5, §6, §7, §8

[9] = test system: Mucor mucedo plus; conditions: pH 6.0, 22° C., 14 days; for MIC: Mucor mucedo, 336 h, pH 6, Mucor mucedo plus
Protocol: as §1, §2, §3, §4, §5, §6, §7, §8

[10] = test system: Trichophyton mentagrophytes; conditions: pH 6.0, 22° C., 14 days; for MIC: 336 h, pH 6, Trichophyton mentagrophytes
Protocol: as §1, §2, §3, §4, §5, §6, §7, §8

[11] = test system: Trichophyton rubrum; conditions: pH 6.0, 22° C., 14 days; for MIC: 336 h, pH 6, Trichophyton rubrum
Protocol: as §1, §2, §3, §4, §5, §6, §7, §8

[12] = test system: Trichophyton verrucosum; conditions: pH 6.0, 22° C., 14 days; for MIC: 336 h, pH 6, Trichophyton verrucosum
Protocol: as §1, §2, §3, §4, §5, §6, §7, §8

[13] = pH 6, Candida albicans, pH 6.0, 22° C., 14 days, read-out: MIC C.alb
[14] = pH 6, Candida tropicalis, pH 6.0, 22° C., 14 days, read-out: MIC C.trop
[15] = pH 6, Microsporum gypseum, pH 6.0, 22° C., 14 days, read-out: MIC Mi.gyp

COc1ccc(SCCNC(Cn2ccnc2)c2ccc(Cl)cc2Cl)cc1 (stereo not shown) [Compound 39]
MIC [1]: 25 µg/mL (≈ 59.2 µM)
MIC Asp.fu. ([2]; 20160 min, pH 6): 12,5 μg/ml
MIC [3, 13]: 25 µg/mL (≈ 59.2 µM)
MIC [4, 14]: 12.5 µg/mL (≈ 29.6 µM)
MIC [5]: 12.5 µg/mL (≈ 29.6 µM)
MIC [6]: 12.5 µg/mL (≈ 29.6 µM)
MIC [7, 15]: 6.25 µg/mL (≈ 14.8 µM)
MIC [8]: 12.5 µg/mL (≈ 29.6 µM)
MIC [9]: 12.5 µg/mL
MIC [10]: 6.25 µg/mL (≈ 14.8 µM)
MIC [11]: 6.25 µg/mL (≈ 14.8 µM)
MIC [12]: 6.25 µg/mL (≈ 14.8 µM)

CN(CCCOc1ccc(Cl)cc1)C(Cn1ccnc1)c1ccc(Cl)cc1Cl (stereo not shown) [Compound 60]
MIC [1]: 6.25 µg/mL (≈ 14.2 µM)
MIC Asp.fu. ([2]; 20160 min, pH 6): 6,25 μg/ml
MIC [3, 13]: 3.12 µg/mL (≈ 7.11 µM)
MIC [4, 14]: 1.56 µg/mL (≈ 3.56 µM)
MIC [5]: 3.12 µg/mL (≈ 7.11 µM)
MIC [6]: 1.56 µg/mL (≈ 3.56 µM)
MIC [7, 15]: 3.12 µg/mL (≈ 7.11 µM)
MIC [8]: 1.56 µg/mL (≈ 3.56 µM)
MIC [9]: 3.12 µg/mL
MIC [10]: 6.25 µg/mL (≈ 14.2 µM)
MIC [11]: 0.78 µg/mL (≈ 1.78 µM)
MIC [12]: 1.56 µg/mL (≈ 3.56 µM)

CN(CCCOc1ccc(Br)cc1)C(Cn1cncn1)c1ccc(Cl)cc1Cl (stereo not shown) [Compound 62]
MIC [1]: 50 µg/mL (≈ 103 µM)
MIC Asp.fu. ([2]; 20160 min, pH 6): 1,56 μg/ml
MIC [3, 13]: 6.25 µg/mL (≈ 12.9 µM)
MIC [4, 14]: 3.12 µg/mL (≈ 6.44 µM)
MIC [5]: 0.78 µg/mL (≈ 1.61 µM)
MIC [6]: 3.12 µg/mL (≈ 6.44 µM)
MIC [7, 15]: 3.12 µg/mL (≈ 6.44 µM)
MIC [8]: 3.12 µg/mL (≈ 6.44 µM)
MIC [9]: 3.12 µg/mL
MIC [10]: 1.56 µg/mL (≈ 3.22 µM)
MIC [11]: 3.12 µg/mL (≈ 6.44 µM)
MIC [12]: 1.56 µg/mL (≈ 3.22 µM)

Clc1ccc(COC(Cn2ccnc2)c2ccc(Cl)cc2Cl)c(Cl)c1 (stereo not shown) [A, 1-(2-(2,4-dichlorophenyl)-2-(2,4-dichlorophenylmethoxy)ethyl)-1H-imidazole, reference compound]
MIC [1]: 12.5 µg/mL (≈ 30 µM)
MIC Asp.fu. ([2]; Aspergillus fumigatus, pH 6.0, 22° C., 14 days): 3,12 μg/ml
MIC ([3]; pH 6, read-out: MIC C.alb): 12.5 µg/mL (≈ 30 µM)
MIC ([4]; pH 6, read-out: MIC C.trop): 12.5 µg/mL (≈ 30 µM)
MIC [5]: 1.56 µg/mL (≈ 3.75 µM)
MIC [6]: 6.25 µg/mL (≈ 15 µM)
MIC ([7]; pH 6, read-out: MIC Mi.gyp): 3.12 µg/mL (≈ 7.5 µM)
MIC [8]: 12.5 µg/mL (≈ 30 µM)
MIC [9]: 12.5 µg/mL
MIC [10]: 1.56 µg/mL (≈ 3.75 µM)
MIC [11]: 6.25 µg/mL (≈ 15 µM)
MIC [12]: 6.25 µg/mL (≈ 15 µM)

CN(CCCOc1ccc(I)cc1)C(Cn1ccnc1)c1ccc(Cl)cc1Cl (stereo not shown) [Compound 65]
MIC [1]: 3.12 µg/mL (≈ 5.88 µM)
MIC Asp.fu. ([2]; 20160 min, pH 6): 3,12 μg/ml
MIC [3, 13]: 3.12 µg/mL (≈ 5.88 µM)
MIC [4, 14]: 1.56 µg/mL (≈ 2.94 µM)
MIC [5]: 3.12 µg/mL (≈ 5.88 µM)
MIC [6]: 1.56 µg/mL (≈ 2.94 µM)
MIC [7, 15]: 3.12 µg/mL (≈ 5.88 µM)
MIC [8]: 6.25 µg/mL (≈ 11.8 µM)
MIC [9]: 6.25 µg/mL
MIC [10]: 6.25 µg/mL (≈ 11.8 µM)
MIC [11]: 0.78 µg/mL (≈ 1.47 µM)
MIC [12]: 1.56 µg/mL (≈ 2.94 µM)

Clc1ccc(C(Cn2ccnc2)NCCSc2ccc(Br)cc2)c(Cl)c1 (stereo not shown) [Compound 37]
MIC [1]: 12.5 µg/mL (≈ 26.5 µM)
MIC Asp.fu. ([2]; 20160 min, pH 6): 6,25 μg/ml
MIC [3, 13]: 6.25 µg/mL (≈ 13.3 µM)
MIC [4, 14]: 6.25 µg/mL (≈ 13.3 µM)
MIC [5]: 1.56 µg/mL (≈ 3.31 µM)
MIC [6]: 6.25 µg/mL (≈ 13.3 µM)
MIC [7, 15]: 0.78 µg/mL (≈ 1.66 µM)
MIC [8]: 6.25 µg/mL (≈ 13.3 µM)
MIC [9]: 6.25 µg/mL
MIC [10]: 1.56 µg/mL (≈ 3.31 µM)
MIC [11]: 1.56 µg/mL (≈ 3.31 µM)
MIC [12]: 1.56 µg/mL (≈ 3.31 µM)

Cc1ccc(SCCCNC(Cn2ccnc2)c2ccc(Cl)cc2Cl)cc1 (stereo not shown) [Compound 92]
MIC [1]: 6.25 µg/mL (≈ 14.9 µM)
MIC Asp.fu. ([2]; 20160 min, pH 6): 0,78 μg/ml
MIC [3, 13]: 12.5 µg/mL (≈ 29.7 µM)
MIC [4, 14]: 12.5 µg/mL (≈ 29.7 µM)
MIC [5]: 0.78 µg/mL (≈ 1.86 µM)
MIC [6]: 3.12 µg/mL (≈ 7.42 µM)
MIC [7, 15]: 0.78 µg/mL (≈ 1.86 µM)
MIC [8]: 3.12 µg/mL (≈ 7.42 µM)
MIC [9]: 0.78 µg/mL
MIC [10]: 0.78 µg/mL (≈ 1.86 µM)
MIC [11]: 0.78 µg/mL (≈ 1.86 µM)
MIC [12]: 0.78 µg/mL (≈ 1.86 µM)

Clc1ccc(C(Cn2ccnc2)NCCCSc2ccc(Br)cc2)c(Cl)c1 (stereo not shown) [Compound 1, 1-(2-(2,4-Dichlorophenyl)-2-(3-(4-bromophenylthio)propylamino)ethyl)-1H-imidazole]
MIC Abs.ra. ([1]; Absidia ramosa): 3,12 μg/ml
MIC Asp.fu. ([2]; 20160 min, pH 6): 1,56 μg/ml
MIC C.alb ([3]; pH 6.0, 22° C., 14 days): 3,12 μg/ml
MIC Ep.flo [5]: 0,78 μg/ml
MIC Mi.gyp ([7]; Microsporum gypseum, pH 6.0, 22° C., 14 days): 0,39 μg/ml
MIC Mu.mu- ([8]; Mucor mucedo minus): 6,25 μg/ml
MIC Mu.mu+ ([9]; Mucor mucedo plus): 6,25 μg/ml
MIC Tri.me. [10]: 0,39 μg/ml
MIC Tri.ru. [11]: 0,39 μg/ml
MIC Tri.ve. [12]: 0,30 μg/ml

Clc1ccc(C(Cn2ccnc2)NCCSc2ccc3ccccc3c2)c(Cl)c1 (stereo not shown) [Compound 40]
MIC [1]: 12.5 µg/mL (≈ 28.3 µM)
MIC [3, 13]: 6.25 µg/mL (≈ 14.1 µM)
MIC Ep.flo [5]: 3,12 μg/ml and 6,25 μg/ml
MIC [7, 15]: 3.12 µg/mL (≈ 7.05 µM)
MIC [8]: 25 µg/mL (≈ 56.5 µM)
MIC [9]: 12.5 µg/mL
MIC [10]: 6.25 µg/mL (≈ 14.1 µM)
MIC [11]: 3.12 µg/mL (≈ 7.05 µM)
MIC [12]: 3.12 µg/mL (≈ 7.05 µM)
